One experiment deals with KF-28 cells. Kind of experiment: Annexin V-FITC/PI apoptosis assessment. In kind it is cell-based, human. The conditions noted are these: 48 h, cisplatin 10 μM, DMSO control 0.45%. On the procedure:
Therefore, we decided to use such technique to investigate if the cytotoxic effect of the compounds indicated by MTT and the cell cycle experiments is apoptotic cell death or not. For that purpose, two cell lines, KF-28 and A2780, were stained by annexin V/PI after treatment with different compounds vs. DMSO for two days in parallel with cisplatin as a reference drug. Results from annexin staining analysis show appreciated annexin V–stained populations when cells are treated with compounds 5a–c, 5f, and 9. […] Similar results were obtained from the other cell line, A2780, treated with the same compounds (Figure 2B).
The cells were seeded into six-well culture plates (3–5 × 10^5 cells/well) and incubated overnight at 37°C, under 5% CO2. The cells were then treated with indicated compounds for 48 h. Next, media supernatants and the cells were collected and washed with ice-cold PBS. Next, the cells were stained with PI (10 mg/ml) for 30 min and analyzed for DNA contents using flow cytometry analysis using an FL2 (λex/em 535/617 nm) signal detector (ACEA Novocyte™ flow cytometer, ACEA Biosciences, Inc., San Diego, CA, United States). For each sample, 12,000 events are acquired. Cell cycle distribution is calculated using a CytoFLex machine and analyzed by CytExpert software. Flow cytometric methodologies (annexin V/PI staining with cell cycle analyses) are carried out as previously described ([Nafie et al., 2020a]; [Nafie et al., 2020b]; [Gad et al., 2020]).

In the next experiment the test system is C-myc in KF-28 cells. The experiment in a line: Western blot of C-myc expression. In kind it is cell-based, human. The conditions noted are these: two days, vs DMSO. The text has this:
Pim-1 has been classified as a weak oncogene. However, a very strong synergism with regard to tumorigenicity occurs between Pim-1 and C-myc. This synergism is observed with bitransgenic mice overexpressing C-myc and Pim-1 in lymphoid tissue ([Möröy et al., 1991]). To further validate the simulation and docking data which introduced Pim-1 kinase as a potential target molecule for some of the tested compounds, we decided to check the effect of treatment with the selected compounds on the C-myc protein expression as a downstream target molecule known to be phosphorylated and stabilized by Pim-1 as a kinase ([Zhang et al., 2008]). […] Taking into consideration the fact that Pim-1 phosphorylates C-myc and controls its stability ([Zhang et al., 2008]) may conclude that the reduction of C-myc expression under the indicated compounds is due to the inhibition of Pim-1 activity (Figure 3). Therefore, the speculated inhibition of Pim-1 is supported by the above-mentioned qPCR data (Figure 3) and further supported by C-myc downregulation. Our results agree with the reported one which states that some thiazole derivatives are potent inhibitors against protein kinases including Pim-1 kinase ([Mohareb et al., 2019]).
Cell lysates were prepared by lysing cells in RIPA buffer (10 mM Tris (pH 7.4), 150 mM NaCl, 1% Triton X-100, 1% Na deoxycholate), supplemented with protease inhibitor cocktail (Sigma). Protein concentration of whole cell lysates was determined by the […] using the BSA kit (Pierce), and then equal protein amounts were heated to 95 °C for 5 min with sodium dodecyl sulfate (SDS) sample buffer (25 ml glycerol, 31.2 ml Tris buffer, 7.5 ml SDS, a dash of bromophenol blue/100 ml) and run on 15% SDS polyacrylamide gel electrophoresis (SDS-PAGE). Protein samples were then blotted onto PVDF membranes (Immobilon P, Watford, United Kingdom). The membranes were incubated in blocking solution (5% non-fat milk in PBS) for 1 h and then in primary antibody (anti-human C-myc pAb (Abcam; at dilution of 2:1,000) or GAPDH mAb (Santa Cruz; at dilution of 20:1,000)) overnight. After 3 × 10 min washes in TBS (0.1% Tween-20 in PBS), the membrane was incubated for 1 h at room temperature with horseradish-peroxidase–linked (HRP) secondary anti-rabbit or anti-mouse Ab (1:1,000 dilution in PBS). Signals on the membrane were developed using ECL reagent (Amersham, CA, United States) and then were imaged with the Chemidoc system (Bio-Rad, United States).
(In general: Immunoblotting shows a protein as a band on a membrane.)

For experiment [1], the system named is MDA-MB-231 breast cancer cells. The experiment in a line: MTT cytotoxicity assay, MDA-MB-231. The conditions noted are these: Homo sapiens, MDA-MB-231; MTT, 72 h, n = 3; read-out: IC50 MDA-MB-231 (Breast). In kind it is cell-based. As to the method: The synthesized derivatives were screened for their cytotoxic activities against five cancer cell lines (two breast cancer cell lines: MCF-7 and MDA-MB-231, two ovarian cancer cell lines: A2780 and KF-28, and one cervical cancer cell line: Hela). This study was performed using serial concentrations of 25, 50, 100, 150, and 200 µM of each compound using the MTT assay. Percentages of cell viability of the tested compounds with serial concentration against the tested panel of cell lines are depicted in Figure 1, in which there is a decrease in the cell viability with increasing concentrations in a dose–response pattern. […] Therefore, compounds 5a, 5b, and 5f were thought worthwhile to further investigate their effects as either cytotoxic or antiproliferative effects and whether any of them is an inducer of apoptotic cell death in the representative cancer cell lines KF-28 and A2780.
The human ovarian serous carcinoma cell line KF-28 was kindly provided by Prof. Yoshihiro Kikuchi (Department of Obstetrics and Gynecology, National Defense Medical College, Saitama, Japan), and A2780 cell line was purchased from the ECACC (ECACC 93112519). The cells were maintained in RPMI-1640 (Sigma-Aldrich, United States). The cervical cancer cell line, Hela cells, breast cancer cell line, MCF-7, and MDA-MB-231 were purchased from the ATCC and cultured in DMEM. Both types of media were supplemented with 2 mM L-glutamine (Lonza, Belgium), 10% FBS (Sigma, St. Louis, MO, United States), and 1% penicillin/streptomycin (Lonza, Belgium). All cells were incubated at 37°C in 5% CO2 atmosphere (NuAire). All cancer cell lines were cultured according to the routine tissue culture work as discussed by the Freshney group ([Freshney, 2010]). The cells were plated at a density of 5,000 cells in triplicates in a 96-well plate. On the next day, the cells were treated with the indicated compound(s) at the indicated concentrations in a final volume of 100 μL media. Cell viability was assessed after 72 h using MTT solution (Promega) ([Mosmann, 1983]). 20 μL of the reagent was added to each well, the plate was incubated for 3 h, […] was subsequently measured (570 nm) using a plate reader, and then the IC50 values were calculated using Excel ([Tantawy et al., 2020]).
In general terms: Tetrazolium dyes change colour on reduction, which living cells bring about.

Consider three molecules from publication PMC8397418, “Novel Bis-Thiazole Derivatives: Synthesis and Potential Cytotoxic Activity Through Apoptosis With Molecular Docking Approaches” (Frontiers in Chemistry, 2021).

In general, IC50 refers to the midpoint of a concentration-inhibition curve.

Entries after “also recorded” stand apart in the source; their conditions may differ.

Turning to `Cc1[nH]c(=NN=C2CCC(=NN=c3[nH]c(C)c(N=Nc4ccccc4)s3)CC2)sc1N=Nc1ccccc1` [5a, 1,4-Bis((5-phenylazo-4-methylthiazol-2-ylidene)hydrazono)cyclohexane], the “Total apoptotic cell death (annexin V-positive cells)” value in the experiment on KF-28 cells is recorded as 38.21%. Also, in the experiment with C-myc in KF-28 cells, the “C-myc protein expression (Western blot)” value is recorded as “observable downregulation”.
Regarding `Cc1ccc(N=Nc2sc(=NN=C3CCC(=NN=c4[nH]c(C)c(N=Nc5ccc(C)cc5)s4)CC3)[nH]c2C)cc1` [5b, 1,4-Bis((5-(4-tolylazo)-4-methylthiazol-2-ylidene)hydrazono)cyclohexane], the 50% inhibitory concentration (IC50) in experiment [1] was more than 200 µM. Besides, in the experiment with KF-28 cells, the “Total apoptotic cell death (annexin V-positive cells)” value came out at 18.77%. In the experiment with C-myc in KF-28 cells, the “C-myc protein expression (Western blot)” value is “observable downregulation; also recorded: Appreciated downregulation”.
Take `Cc1[nH]c(=NN=C2CCC(=NN=c3[nH]c(C)c(N=Nc4ccccc4Cl)s3)CC2)sc1N=Nc1ccccc1Cl` [5f, 1,4-Bis((5-(2-chlorophenylazo)-4-methylthiazol-2-ylidene)hydrazono)cyclohexane]: in experiment [1], the IC50 is more than 200 µM. For the same molecule, the “C-myc protein expression (Western blot)” value with C-myc in KF-28 cells is recorded as “observable downregulation; also recorded: Appreciated downregulation”.
